The text below walks through data of US12478624B2, “Heterocyclic derivatives, pharmaceutical compositions and their use in the treatment or amelioration of cancer” (Tolremo Therapeutics AG, priority 2019, dated 2025).

The structures appear in SMILES notation.

The term EC50 denotes the midpoint of the concentration-response curve.

The first test relates to A375 cells. Briefly: Assay 1: A375 cells treated with S1152, S1008 and compound, immunofluorescence (sc-365823) signal. The settings on record: 1 μM S1152 + 0.5 μM S1008, one day. The format is cell-based. How it is done: One thousand four hundred A375 cells were seeded in each well of a 384 well microplate. One day later they were treated with 1 μM S1152 (Selleckchem) in dimethyl sulfoxide, 0.5 μM S1008 (Selleckchem) and dose ranges of invention compounds for one day in Dulbecco's Modified Eagle's Medium supplemented with 10% fetal calf serum and 2 mM (2S)-2-amino-4-carbamoylbutanoic acid. Wells were incubated with 4% polyoxymethylene (Sigma Aldrich 158127) at ambient temperature. […] After one minute phosphate-buffered saline was replaced with 0.2% polyethylene glycol octylphenyl ether in phosphate-buffered saline. […] 1% aminoethanoic acid in phosphate-buffered saline was added for ten minutes at ambient temperature. […] After one hour at ambient temperature in the dark, signal in wells was measured with a Acumen Cellista. 3,8-Diamino-5-[3-(diethylmethylammonio)propyl]-6-phenylphenanthridinium diiodide-positive objects were defined in FL3 (565-600 nm) with a perimeter between 50-800 μm and a total intensity of 10000-1000000 FLU. Signal in FL2 (500-530 nm) was measured in defined objects. A normalized ratio of total In FL2 over total In FL3 staining was log transformed. A non-linear regression (variable slope, 4 parameters) was used to calculate EC50 values using GraphPad Prism (Version 7.0d).
In an alternative procedure, assay 1 has been affected by changing the counteratain. […] Cells were incubated with 0.5 μg/ml 2-(4-Amidinophenyl)-6-indolecarbamidine dihydrochloride, 4′,6-Diamidino-2-phenylindole dihydrochloride (Sigma D9542) in phosphate-buffered saline for at least 30 minutes at ambient temperature in the dark. A Celigo Imager (Nexcelom) was used to acquire images in the blue and green channel. The blue channel was used as a mask to define the area for the green signal. The average integrated intensity of the green signal was normalized and a non-linear regression (variable slope, 4 parameter) was used to calculate the EC50 values using GraphPad Prism (Version 8.4)
Turning to `COc1cc(-c2cc(Nc3ccnc(C)c3)nc([C@@H]3CC[C@H](C)N(C(C)=O)C3)n2)cnc1OC` [Compound 00110, 1-((2S,5R)-5-(4-(5,6-dimethoxypyridin-3-yl)-6-((2-methylpyridin-4-yl)amino)pyrimidin-2-yl)-2-methylpiperidin-1-yl)ethan-1-one], the EC50 was more than 10000 nM.

Turning to `CC(=O)N1C[C@H](c2nc(Nc3cccnc3)cc(-c3cccnc3)n2)CC[C@@H]1C` (racemic) [Compound 00102, (+/−)-cis-1-(2-methyl-5-(4-(pyridin-3-yl)-6-(pyridin-3-ylamino)pyrimidin-2-yl)piperidin-1-yl)ethan-1-one], the EC50 fell in the range of 200 to 1000 nM. In the case of `CC(=O)N1C[C@H](c2nc(Nc3ccc4ncncc4c3)cc(-c3cccnc3)n2)CC[C@@H]1C` [Compound 00121, 1-((2S,5R)-2-methyl-5-(4-(pyridin-3-yl)-6-(quinazolin-6-ylamino)pyrimidin-2-yl)piperidin-1-yl)ethan-1-one], the half-maximal effective concentration (EC50) is less than 200 nM. The same measure, in the same setting: in the case of `CC(=O)N1C[C@H](c2nc(Nc3ccnc(C)c3)cc(-c3cncc(N4CC(C(N)=O)C4)c3)n2)CC[C@@H]1C` [Compound 00114, 1-(5-(2-((3R,6S)-1-acetyl-6-methylpiperidin-3-yl)-6-((2-methylpyridin-4-yl)amino)pyrimidin-4-yl)pyridin-3-yl)azetidine-3-carboxamide] it was more than 10000 nM. In the case of `CC(=O)N1C[C@H](c2nc(Nc3cncc(C)c3)cc(-c3cncc(C)c3)n2)CC[C@@H]1C` (racemic) [Compound 00098, (+/−)-c/s-1-(2-methyl-5-(4-(5-methylpyridin-3-yl)-6-((5-methylpyridin-3-yl)amino)pyrimidin-2-yl)piperidin-1-yl)ethan-1-one], the EC50 is less than 200 nM. The same measure, in the same setting: in the case of `CC(=O)N1C[C@H](c2nc(Nc3cncc(N4CCCC4=O)c3)cc(-c3cccnc3)n2)CC[C@@H]1C` [Compound 00135, 1-(5-((2-((3R,6S)-1-acetyl-6-methylpiperidin-3-yl)-6-(pyridin-3-yl)pyrimidin-4-yl)amino)pyridin-3-yl)pyrrolidin-2-one] it was 1000 to 10000 nM; in that of `CC(=O)N1C[C@H](c2nc(Nc3ccc4cn[nH]c4c3)cc(-c3cccnc3)n2)CC[C@@H]1C` [Compound 00029, 1-((2S,5R)-5-(4-((1H-indazol-6-yl)amino)-6-(pyridin-3-yl)pyrimidin-2-yl)-2-methylpiperidin-1-yl)ethan-1-one], 200 to 1000 nM. As for `CC(=O)N1C[C@H](c2nc(Nc3cccc(N4CCCC4=O)c3)cc(-c3cccnc3)n2)CC[C@@H]1C` [Compound 00048, 1-(3-((2-((3R,6S)-1-acetyl-6-methylpiperidin-3-yl)-6-(pyridin-3-yl)pyrimidin-4-yl)amino)phenyl)pyrrolidin-2-one], the EC50 was less than 200 nM. `CC(=O)N1C[C@H](c2nc(Nc3ccc4c(c3)B(O)OC4)cc(-c3cccnc3)n2)CC[C@@H]1C` [Compound 00034, 1-((2S,5R)-5-(4-((1-hydroxy-1,3-dihydrobenzo[c][1,2]oxaborol-6-yl)amino)-6-(pyridin-3-yl)pyrimidin-2-yl)-2-methylpiperidin-1-yl)ethan-1-one]: the EC50 fell in the range of 200 to 1000 nM. Consider `CC(=O)N1C[C@H](c2nc(Nc3ccc4[nH]ccc4c3)cc(-c3cccnc3)n2)CC[C@@H]1C` [Compound 00028, 1-((2S,5R)-5-(4-((1H-indol-5-yl)amino)-6-(pyridin-3-yl)pyrimidin-2-yl)-2-methylpiperidin-1-yl)ethan-1-one], for which the concentration for a half-maximal effect (EC50) is less than 200 nM. For `CC(=O)N1C[C@H](c2nc(Nc3ccnc(C)c3)cc(-c3cncc(C(=O)N(C)C)c3)n2)CC[C@@H]1C` [Compound 00109, 5-(2-((3R,6S)-1-acetyl-6-methylpiperidin-3-yl)-6-((2-methylpyridin-4-yl)amino)pyrimidin-4-yl)-N,N-dimethylnicotinamide], the EC50 was more than 10000 nM. `CC(=O)N1C[C@H](c2nc(Nc3cccc(O)c3)cc(-c3cccnc3)n2)CC[C@@H]1C` [Compound 00075, 1-((2S,5R)-5-(4-((3-hydroxyphenyl)amino)-6-(pyridin-3-yl)pyrimidin-2-yl)-2-methylpiperidin-1-yl)ethan-1-one]: the concentration giving a half-maximal response (EC50) was less than 200 nM. The same measure, in the same setting: in the case of `CC(=O)N1C[C@H](c2nc(Nc3ccnc(C)c3)cc(-c3cncc(N4CCCC4=O)c3)n2)CC[C@@H]1C` [Compound 00108, 1-(5-(2-((3R,6S)-1-acetyl-6-methylpiperidin-3-yl)-6-((2-methylpyridin-4-yl)amino)pyrimidin-4-yl)pyridin-3-yl)pyrrolidin-2-one] it was 200 to 1000 nM; in that of `COc1cncc(-c2cc(Nc3cccc(Cl)c3)nc([C@@H]3CC[C@H](C)N(C(C)=O)C3)n2)c1` [Compound 00074, 1-((2S,5R)-5-(4-((3-chlorophenyl)amino)-6-(5-methoxypyridin-3-yl)pyrimidin-2-yl)-2-methylpiperidin-1-yl)ethan-1-one], less than 200 nM; in that of `CC(=O)N1C[C@H](c2nc(Nc3ccnc(F)c3)cc(-c3cncc(N4CCCC4=O)c3)n2)CC[C@@H]1C` [Compound 00106, 1-(5-(2-((3R,6S)-1-acetyl-6-methylpiperidin-3-yl)-6-((2-fluoropyridin-4-yl)amino)pyrimidin-4-yl)pyridin-3-yl)pyrrolidin-2-one], less than 200 nM. `CC(=O)N1C[C@H](c2nc(Nc3ccc4nncnc4c3)cc(-c3cccnc3)n2)CC[C@@H]1C` [Compound 00122, 1-((2S,5R)-5-(4-(benzo[e][1,2,4]triazin-6-ylamino)-6-(pyridin-3-yl)pyrimidin-2-yl)-2-methylpiperidin-1-yl)ethan-1-one]: the concentration for a half-maximal effect (EC50) is 200 to 1000 nM.

In the case of `CC(=O)N1C[C@H](c2nc(Nc3cccc(F)c3)cc(-c3cccnc3)n2)CC[C@@H]1C(F)(F)F` (racemic) [Compound 00023, (+/−)-c/s-1-(5-(4-((3-fluorophenyl)amino)-6-(pyridin-3-yl)pyrimidin-2-yl)-2-(trifluoromethyl)piperidin-1-yl)ethan-1-one], the concentration for a half-maximal effect (EC50) was 200 to 1000 nM. On the same count and under the same terms, then `[2H]C([2H])([2H])[C@H]1CC[C@@H](c2nc(Nc3cccc(F)c3)cc(-c3cccnc3)n2)CN1C(C)=O` [Compound 00010], with less than 200 nM; and `COc1cc(F)cc(Nc2cc(-c3cccnc3)nc([C@@H]3CC[C@H](C)N(C(C)=O)C3)n2)c1` [Compound 00031, 1-((2S,5R)-5-(4-((3-fluoro-5-methoxyphenyl)amino)-6-(pyridin-3-yl)pyrimidin-2-yl)-2-methylpiperidin-1-yl)ethan-1-one], with less than 200 nM; and `CC(=O)N1C[C@H](c2nc(Nc3cncc(C)c3)cc(-c3cncc(C4COC4)c3)n2)CC[C@@H]1C` (racemic) [Compound 00100, (+/−)-c/s-1-(2-methyl-5-(4-((5-methylpyridin-3-yl)amino)-6-(5-(oxetan-3-yl)pyridin-3-yl)pyrimidin-2-yl)piperidin-1-yl)ethan-1-one], with 200 to 1000 nM.

Still in this test, the particulars now being: Homo sapiens, A-375, 24 h, 1 μM S1152 + 0.5 μM S1008, one day.
Regarding `CC(=O)N1C[C@H](c2nc(Nc3cccc(C)c3)cc(-c3cccnc3)n2)CC[C@@H]1C(F)F` (racemic) [Compound 00027, (+/−)-cis-1-(2-(difluoromethyl)-5-(4-(pyridin-3-yl)-6-(m-tolylamino)pyrimidin-2-yl)piperidin-1-yl)ethan-1-one], the EC50 was 1000 to 10000 nM. Still for that read-out and setting: then `COc1cncc(-c2cc(Nc3cncc(C)c3)nc([C@H]3CC[C@H](C)N(C(C)=O)C3)n2)c1` [Compound 00133, 1-((2S,5S)-5-(4-(5-methoxypyridin-3-yl)-6-((5-methylpyridin-3-yl)amino)pyrimidin-2-yl)-2-methylpiperidin-1-yl)ethan-1-one], with more than 10000 nM.
